Results on eight molecules are retold here after publication PMC10100342, “Thiamyxins: Structure and Biosynthesis of Myxobacterial RNA‐Virus Inhibitors” (Angewandte Chemie (International Ed. in English), 2022).

Values after ≈ are worked out from the molar mass of the structure shown. Values joined by “and” are separate entries in the source; they are usually repeats but may differ in a detail not shown here. Equal entries are not always repeated. Where two headings read alike, the source gives them in different places.

One data set relates to hCoV-229E-luc. The data set is described as follows: organism not typed. The class given is cell-based, alphacoronavirus HCoV-229E.
Data set [1] in a line: in vitro. Conditions: human.
For data set [2], the system named is DENV-R2A. Conditions: CC50 Huh-7 versus IC50 DENV-R2A.
Data set [3] has as its system Micrococcus luteus DSM-1790. The data set is described as follows: Antimicrobial activity (MIC). Particulars: DSM1790, read-out: MIC Micrococcus luteus DSM-1790.
Data set [4] can be described thus: Cell viability (CellTiter Glo) of Huh-7 cells in parallel to ZIKV antiviral test. Conditions: human. A general note: ATP-based viability assays read luminescence as a measure of living cells.
Data set [5] in a line: in vitro. Particulars: human. The source holds these as a separate data set.
Data set [6] concerns DENV-R2A. The data set is described as follows: microbe, parasite or virus in culture. Particulars: Dengue virus, Huh-7, 48 h, read-out: IC50 against DENV-R2A.
The test system of another data set is Mucor hiemalis DSM-2656. The data set can be described thus: Antimicrobial activity (MIC). Particulars: DSM2656, read-out: MIC Mucor hiemalis DSM-2656.
Data set [7] deals with Candida. albicans DSM-1665. The data set can be described thus: Antimicrobial activity (MIC). Conditions: DSM1665, read-out: MIC Candida. albicans DSM-1665.
A further data set relates to Bacillus subtilis DSM-10. The data set is described as follows: Antimicrobial activity (MIC). Conditions: DSM10, read-out: MIC Bacillus subtilis DSM-10.
The next data set has as its system ZIKV-H/PF/2013. The data set is described as follows: microbe, parasite or virus in culture. The class given is cell-based. Conditions: Zika virus, Huh-7, 48 h, read-out: IC50 against ZIKV-H/PF/2013.
The test system of data set [8] is Candida albicans, Mucor hiemalis, Bacillus subtilis and Micrococcus luteus. The data set can be described thus: Antimicrobial test panel (whole-panel statements). Conditions: in the tested concentrations.
Method: All thiamyxins except congener A, which was only produced in low amounts, were tested against two
Gram-positive and two fungal pathogens.
Setting [9] is: Huh-7.5/Fluc cells, 48 h, 33 °C, Renilla luciferase, read-out: IC50 against hCoV-229E-luc.
Where [10] appears, read: read-out: IC50 against hCoV-229E-luc, Huh-7.5/Fluc cells, 48 h, 33 °C, Renilla luciferase.

For `COC(=O)/C=C(\OC)[C@H](C)[C@H](/C=C/c1csc(CCCCCCCC(C)C)n1)OC` [Fulvuthiacene A], the IC50 in the data set with hCoV-229E-luc (setting [9]) worked out at 1.95 µM. Also, in the data set with Huh-7.5 Fluc infected, the CC50 was > 10 µM.

Consider `COC(=O)/C=C(\OC)[C@H](C)[C@H](/C=C/c1csc(CCCCCC(C)C)n1)OC` [Fulvuthiacene B], for which the IC50 in the data set on hCoV-229E-luc (setting [9]) worked out at 0.97 µM. Further, in the data set on Huh-7.5 Fluc infected, the CC50 is > 10 µM.

Regarding `C=C1NC(=O)C2(C)CSC(=N2)c2csc(n2)C2(C)CSC(=N2)C(C(C)CC)NC(=O)C(C)NC(=O)C(=CC(C)C)COC(=O)c2csc(n2)C(C(C)C)N(C)C(=O)C(COC)NC1=O` (stereo not drawn) [Thiamyxin A], the IC50 in the data set on hCoV-229E-luc (Huh7.5, 48 h, read-out: IC50 against hCoV-229E-luc, Huh-7.5/Fluc cells, 48 h, 33 °C, Renilla luciferase) stood at 2.49 µM; in the data set on hCoV-229E-luc (setting [10]), 2.47 µM. Moreover, the CC50 in the data set “in vitro [1]” was > 10 µM.

As a reminder, the MIC is the lowest concentration that inhibits growth of the organism. For `C=C1NC(=O)C2(C)CSC(=N2)c2csc(n2)C2(C)CSC(=N2)C(C(C)CC)NC(=O)C(C)NC(=O)C(=CC(C)C)COC(=O)c2csc(n2)C(C(C)C)N(C)C(=O)C(COC)NC1=O` (stereo not drawn) [Thiamyxin B], the IC50 in the data set on hCoV-229E-luc (setting [10]) amounted to 2.39 µM; in the data set with DENV-R2A [6], 0.56 µM; in the data set with ZIKV-H/PF/2013 it was 1.07 µM. For the same molecule, in the data set on DENV-R2A [2], the “difference between IC50 and CC50, DENV-R2A assay” value was “fourfold”. Further, the MIC is > 64 µg/mL in [3], > 64 µg/mL in the data set with Mucor hiemalis DSM-2656, 64 µg/mL (≈ 66.8 µM) in data set [7] and > 64 µg/mL in the data set on Bacillus subtilis DSM-10. Besides, the CC50 at 48 h (in data set [4]; in “in vitro [5]”) was 2.25 µM in each case. Besides, the CC50 in the data set on Huh-7.5 Fluc infected (human) is > 10 µM.

As for `C=C(NC(=O)C1(C)CSC(c2csc(C3(C)CSC(C(NC(=O)C(C)NC(=O)C(=CC(C)C)CO)C(C)CC)=N3)n2)=N1)C(=O)NC(COC)C(=O)N(C)C(c1nc(C(=O)O)cs1)C(C)C` (stereo not drawn) [Thiamyxin C], the IC50 was > 10 µM in the data set on hCoV-229E-luc (setting [10]); 20.5 µM with hCoV-229E-luc (read-out: IC50 against hCoV-229E-luc, Huh-7.5/Fluc cells, 48 h, 33 °C, Renilla luciferase, listed as KH_Mx152_976); ~20 µM and ~20.5 µM with hCoV-229E-luc (read-out: IC50 against hCoV-229E-luc, Huh-7.5/Fluc cells, 48 h, 33 °C, Renilla luciferase, listed as thiamyxin C); 14.6 µM with DENV-R2A [6]; > 15 µM with ZIKV-H/PF/2013. For the same molecule, the MIC in data set [3] is 32 µg/mL (≈ 32.8 µM); with Mucor hiemalis DSM-2656 it was 64 µg/mL (≈ 65.6 µM); in data set [7], > 64 µg/mL; in the data set on Bacillus subtilis DSM-10 it was 64 µg/mL (≈ 65.6 µM). Moreover, the CC50 in “in vitro [1]” was > 10 µM. Besides, in [4], the CC50 at 48 h is > 50 µM.

For `C=C(NC(=O)C1(C)CSC(c2csc(C3(C)CSC(C(NC(=O)C(C)NC(=O)C(=CC(C)C)CO)C(C)CC)=N3)n2)=N1)C(=O)NC(COC)C(=O)N(C)C(c1nc(C(=O)OCC(O)CO)cs1)C(C)C` (stereo not drawn) [Thiamyxin D], the IC50 was > 10 µM with hCoV-229E-luc (setting [10]); 23.1 µM with hCoV-229E-luc (read-out: IC50 against hCoV-229E-luc, Huh-7.5/Fluc cells, 48 h, 33 °C, Renilla luciferase, listed as KH_Mx152_1050); ~20 µM and ~23.1 µM in the data set on hCoV-229E-luc (read-out: IC50 against hCoV-229E-luc, Huh-7.5/Fluc cells, 48 h, 33 °C, Renilla luciferase, listed as thiamyxin D). Also, the minimum inhibitory concentration (MIC) (in data set [3]; with Mucor hiemalis DSM-2656; in data set [7]; with Bacillus subtilis DSM-10) was > 64 µg/mL throughout. Further, the CC50 in “in vitro [1]” is > 10 µM. Moreover, the “effect on the antimicrobial test panel in words” value in data set [8] was “did not show effects”.

For the molecule `NC(=O)c1ncn([C@@H]2O[C@H](CO)[C@@H](O)[C@H]2O)n1` [ribavirin, reference compound], the values for the IC50 in the data set on DENV-R2A [6] and in the data set on ZIKV-H/PF/2013 were 2.3 µM and 2.5 µM, respectively.

As to Chondrosarid B, the IC50 in the data set on hCoV-229E-luc (setting [9]) was determined as 4.19 µM. For the same molecule, the CC50 in the data set with Huh-7.5 Fluc infected is > 10 µM.
